Laboratory results: patent publication US20140357512A1, “HISTONE DEACETYLASE (HDAC) BIOMARKERS IN MULTIPLE MYELOMA” (priority 2013, published 2014)

System: human myeloma cell line MM.1S
Experiment: Biological pathway analysis of SILAC biomarker peptides against pathway database (broadinstitute gsea)
Experimental: Once biomarker peptides are identified for a specific drug by the SILAC method, the biomarker peptides may be compared to peptides/proteins in a biological pathway database in order to identify major biological pathways or functions implicated by the drug's action. A preferred pathway analysis website is at www dot broadinstitute dot org/gsea/index dot jsp.
This example describes the biological pathway analysis that was performed on each of Compound A, Compound B, and Tubastatin A.
Once biomarker peptides were identified for a specific drug (either Compound A, Compound B, or Tubastatin A) by the SILAC method in Example 1, the biomarker peptides were compared to peptides/proteins in the biological pathway database at www dot broadinstitute dot org/gsea/index dot jsp in order to identify major biological pathways or functions implicated by the drug's action.

`CN1CCc2c(c3ccccc3n2Cc2ccc(C(=O)NO)cc2)C1` [Tubastatin A, reference compound] was tested, and the “Observed: number of genes in pathway REACTOME_PACKAGING_OF_TELOMERE_ENDS” value (Pathway_size 48) was 26, the “Ratio observed/pathway size, REACTOME_PACKAGING_OF_TELOMERE_ENDS” value (Pathway_size 48) was 0.5417 and the “Observed: number of genes in pathway REACTOME_RNA_POL_I_PROMOTER_OPENING” value (Pathway_size 61) was 40. For the same molecule, the “Ratio observed/pathway size, REACTOME_RNA_POL_I_PROMOTER_OPENING” value (Pathway_size 61) was 0.6557, the “Observed: number of genes in pathway REACTOME_DEPOSITION_OF_NEW_CENPA_CONTAINING_NUCLEOSOMES_AT_THE_CENTROMERE” value (Pathway_size 64) was 27 and the “Ratio observed/pathway size, REACTOME_DEPOSITION_OF_NEW_CENPA_CONTAINING_NUCLEOSOMES_AT_THE_CENTROMERE” value (Pathway_size 64) was 0.4219. The “Observed: number of genes in pathway GCM_TPT1” value (Pathway_size 70) was 28, the “Ratio observed/pathway size, GCM_TPT1” value (Pathway_size 70) was 0.4 and the “Observed: number of genes in pathway REACTOME_MEIOTIC_SYNAPSIS” value (Pathway_size 71) was 27. The “Ratio observed/pathway size, REACTOME_MEIOTIC_SYNAPSIS” value (Pathway_size 71) was 0.3803, the “Observed: number of genes in pathway REACTOME_TELOMERE_MAINTENANCE” value (Pathway_size 75) was 26 and the “Ratio observed/pathway size, REACTOME_TELOMERE_MAINTENANCE” value (Pathway_size 75) was 0.3467. The “Observed: number of genes in pathway STRUCTURAL_CONSTITUENT_OF_RIBOSOME” value (Pathway_size 80) was 28, the “Ratio observed/pathway size, STRUCTURAL_CONSTITUENT_OF_RIBOSOME” value (Pathway_size 80) was 0.35 and the “Observed: number of genes in pathway MIPS_RIBOSOME_CYTOPLASMIC” value (Pathway_size 81) was 32. The “Observed: number of genes in pathway REACTOME_AMYLOIDS” value (Pathway_size 81) was 40, the “Ratio observed/pathway size, MIPS_RIBOSOME_CYTOPLASMIC” value (Pathway_size 81) was 0.3951 and the “Ratio observed/pathway size, REACTOME_AMYLOIDS” value (Pathway_size 81) was 0.4938. The “Observed: number of genes in pathway REACTOME_MEIOTIC_RECOMBINATION” value (Pathway_size 84) was 41, the “Ratio observed/pathway size, REACTOME_MEIOTIC_RECOMBINATION” value (Pathway_size 84) was 0.4881 and the “Observed: number of genes in pathway REACTOME_RNA_POL_I_TRANSCRIPTION” value (Pathway_size 86) was 40. The “Ratio observed/pathway size, REACTOME_RNA_POL_I_TRANSCRIPTION” value (Pathway_size 86) was 0.4651, the “Observed: number of genes in pathway KEGG_RIBOSOME” value (Pathway_size 88) was 33 and the “Ratio observed/pathway size, KEGG_RIBOSOME” value (Pathway_size 88) was 0.375. For the same molecule, the “Observed: number of genes in pathway MORF_TPT1” value (Pathway_size 102) was 32, the “Ratio observed/pathway size, MORF_TPT1” value (Pathway_size 102) was 0.3137 and the “Observed: number of genes in pathway MIPS_NOP56P_ASSOCIATED_PRE_RRNA_COMPLEX” value (Pathway_size 104) was 33. The “Ratio observed/pathway size, MIPS_NOP56P_ASSOCIATED_PRE_RRNA_COMPLEX” value (Pathway_size 104) was 0.3173, the “Observed: number of genes in pathway REACTOME_MEIOSIS” value (Pathway_size 112) was 42 and the “Ratio observed/pathway size, REACTOME_MEIOSIS” value (Pathway_size 112) was 0.375. For the same molecule, the “Observed: number of genes in pathway GCM_NPM1” value (Pathway_size 116) was 36, the “Ratio observed/pathway size, GCM_NPM1” value (Pathway_size 116) was 0.3103 and the “Observed: number of genes in pathway GNF2_DAP3” value (Pathway_size 119) was 30. The “Observed: number of genes in pathway REACTOME_RNA_POL_I_RNA_POL_III_AND_MITOCHONDRIAL_TRANSCRIPTION” value (Pathway_size 119) was 40, the “Ratio observed/pathway size, GNF2_DAP3” value (Pathway_size 119) was 0.2521 and the “Ratio observed/pathway size, REACTOME_RNA_POL_I_RNA_POL_III_AND_MITOCHONDRIAL_TRANSCRIPTION” value (Pathway_size 119) was 0.3361. For the same molecule, the “Observed: number of genes in pathway GNF2_EIF3S6” value (Pathway_size 121) was 33, the “Ratio observed/pathway size, GNF2_EIF3S6” value (Pathway_size 121) was 0.2727 and the “Observed: number of genes in pathway GCM_ACTG1” value (Pathway_size 124) was 34. The “Ratio observed/pathway size, GCM_ACTG1” value (Pathway_size 124) was 0.2742, the “Observed: number of genes in pathway MORF_ACTG1” value (Pathway_size 138) was 39 and the “Ratio observed/pathway size, MORF_ACTG1” value (Pathway_size 138) was 0.2826. For the same molecule, the “Observed: number of genes in pathway KEGG_SYSTEMIC_LUPUS_ERYTHEMATOSUS” value (Pathway_size 139) was 47, the “Ratio observed/pathway size, KEGG_SYSTEMIC_LUPUS_ERYTHEMATOSUS” value (Pathway_size 139) was 0.3381 and the “Observed: number of genes in pathway REACTOME_PEPTIDE_CHAIN_ELONGATION” value (Pathway_size 145) was 32. The “Ratio observed/pathway size, REACTOME_PEPTIDE_CHAIN_ELONGATION” value (Pathway_size 145) was 0.2207, the “Observed: number of genes in pathway MORF_NME2” value (Pathway_size 154) was 39 and the “Ratio observed/pathway size, MORF_NME2” value (Pathway_size 154) was 0.2532. For the same molecule, the “Observed: number of genes in pathway REACTOME_INFLUENZA_VIRAL_RNA_TRANSCRIPTION_AND_REPLICATION” value (Pathway_size 161) was 33, the “Ratio observed/pathway size, REACTOME_INFLUENZA_VIRAL_RNA_TRANSCRIPTION_AND_REPLICATION” value (Pathway_size 161) was 0.205 and the “Observed: number of genes in pathway MORF_NPM1” value (Pathway_size 162) was 43. The “Ratio observed/pathway size, MORF_NPM1” value (Pathway_size 162) was 0.2654, the “Observed: number of genes in pathway REACTOME_3_UTR_MEDIATED_TRANSLATIONAL_REGULATION” value (Pathway_size 166) was 32 and the “Ratio observed/pathway size, REACTOME_3_UTR_MEDIATED_TRANSLATIONAL_REGULATION” value (Pathway_size 166) was 0.1928. For the same molecule, the “Observed: number of genes in pathway REACTOME_NONSENSE_MEDIATED_DECAY_ENHANCED_BY_THE_EXON_JUNCTION_COMPLEX” value (Pathway_size 167) was 32, the “Ratio observed/pathway size, REACTOME_NONSENSE_MEDIATED_DECAY_ENHANCED_BY_THE_EXON_JUNCTION_COMPLEX” value (Pathway_size 167) was 0.1916 and the “Observed: number of genes in pathway REACTOME_SRP_DEPENDENT_COTRANSLATIONAL_PROTEIN_TARGETING_TO_MEMBRANE” value (Pathway_size 170) was 39. For the same molecule, the “Ratio observed/pathway size, REACTOME_SRP_DEPENDENT_COTRANSLATIONAL_PROTEIN_TARGETING_TO_MEMBRANE” value (Pathway_size 170) was 0.2294, the “Observed: number of genes in pathway REACTOME_INFLUENZA_LIFE_CYCLE” value (Pathway_size 195) was 37 and the “Ratio observed/pathway size, REACTOME_INFLUENZA_LIFE_CYCLE” value (Pathway_size 195) was 0.1897. For the same molecule, the “Observed: number of genes in pathway MORF_ANP32B” value (Pathway_size 197) was 38, the “Ratio observed/pathway size, MORF_ANP32B” value (Pathway_size 197) was 0.1929 and the “Observed: number of genes in pathway REACTOME_TRANSCRIPTION” value (Pathway_size 207) was 45. For the same molecule, the “Ratio observed/pathway size, REACTOME_TRANSCRIPTION” value (Pathway_size 207) was 0.2174, the “Observed: number of genes in pathway REACTOME_TRANSLATION” value (Pathway_size 211) was 39 and the “Ratio observed/pathway size, REACTOME_TRANSLATION” value (Pathway_size 211) was 0.1848. For the same molecule, the “Observed: number of genes in pathway MORF_UBE2I” value (Pathway_size 238) was 43, the “Ratio observed/pathway size, MORF_UBE2I” value (Pathway_size 238) was 0.1807 and the “Observed: number of genes in pathway MODULE_32” value (Pathway_size 241) was 36. The “Ratio observed/pathway size, MODULE_32” value (Pathway_size 241) was 0.1494, the “Observed: number of genes in pathway MORF_HDAC1” value (Pathway_size 254) was 37 and the “Ratio observed/pathway size, MORF_HDAC1” value (Pathway_size 254) was 0.1457. The “Observed: number of genes in pathway MORF_DEK” value (Pathway_size 262) was 39, the “Ratio observed/pathway size, MORF_DEK” value (Pathway_size 262) was 0.1489 and the “Observed: number of genes in pathway MORF_RAN” value (Pathway_size 268) was 46. The “Ratio observed/pathway size, MORF_RAN” value (Pathway_size 268) was 0.1716, the “Observed: number of genes in pathway MODULE_151” value (Pathway_size 318) was 49 and the “Ratio observed/pathway size, MODULE_151” value (Pathway_size 318) was 0.1541. The “Observed: number of genes in pathway MODULE_83” value (Pathway_size 320) was 50, the “Ratio observed/pathway size, MODULE_83” value (Pathway_size 320) was 0.1562 and the “Observed: number of genes in pathway MODULE_114” value (Pathway_size 338) was 49. For the same molecule, the “Ratio observed/pathway size, MODULE_114” value (Pathway_size 338) was 0.145, the “Observed: number of genes in pathway HSIAO_HOUSEKEEPING_GENES” value (Pathway_size 389) was 68 and the “Ratio observed/pathway size, HSIAO_HOUSEKEEPING_GENES” value (Pathway_size 389) was 0.1748. For the same molecule, the “Observed: number of genes in pathway MOOTHA_HUMAN_MITODB_6_2002” value (Pathway_size 429) was 46, the “Ratio observed/pathway size, MOOTHA_HUMAN_MITODB_6_2002” value (Pathway_size 429) was 0.1072 and the “Observed: number of genes in pathway REACTOME_METABOLISM_OF_PROTEINS” value (Pathway_size 496) was 56. The “Ratio observed/pathway size, REACTOME_METABOLISM_OF_PROTEINS” value (Pathway_size 496) was 0.1129, the “Observed: number of genes in pathway MARTENS_TRETINOIN_RESPONSE_DN” value (Pathway_size 841) was 63 and the “Ratio observed/pathway size, MARTENS_TRETINOIN_RESPONSE_DN” value (Pathway_size 841) was 0.07491. The “Observed: number of genes in pathway GRADE_COLON_CANCER_UP” value (Pathway_size 870) was 62, the “Ratio observed/pathway size, GRADE_COLON_CANCER_UP” value (Pathway_size 870) was 0.07126 and the “Observed: number of genes in pathway DANG_BOUND_BY_MYC” value (Pathway_size 1102) was 68. The “Ratio observed/pathway size, DANG_BOUND_BY_MYC” value (Pathway_size 1102) was 0.06171, the “Observed: number of genes in pathway CYTOPLASMIC_PART” value (Pathway_size 1383) was 67 and the “Ratio observed/pathway size, CYTOPLASMIC_PART” value (Pathway_size 1383) was 0.04845. For the same molecule, the “Observed: number of genes in pathway PUJANA_BRCA1_PCC_NETWORK” value (Pathway_size 1651) was 84, the “Ratio observed/pathway size, PUJANA_BRCA1_PCC_NETWORK” value (Pathway_size 1651) was 0.05088 and the “Observed: number of genes in pathway CYTOPLASM” value (Pathway_size 2130) was 83. The “Ratio observed/pathway size, CYTOPLASM” value (Pathway_size 2130) was 0.03897.
